Assays:
[1] = Permeability (transport study) across bEnd3 monoculture model; conditions: mouse
Protocol: (§2) For the generation of mono-culture models, ECV304 or bEnd3 cells were seeded on the upper surface of the membrane in Polyester Transwell inserts (0.4 μM pore size, 6.5 mm diameter, 24 well, Costar, Kennebunk, ME, USA) at a density of 5 × 10^4 and 8 × 10^4/cm^2, respectively. […] The culture medium (0.25 ml in the apical compartment and 1 ml in the basolateral compartment to avoid hydrostatic pressure) was replenished every day.
(§3) On day 5~7 after seeding cells, the TEER across cell layers was measured before initiating the transport study by replacing the medium in the apical compartment with tested compounds dissolved in HBSS. […] At indicated time points of 15, 30, 45 and 60 min, the inserts were transferred into new wells containing fresh HBSS to maintain sink conditions. […] Other compounds were analyzed by liquid chromatography tandem mass spectrometer (LC-MS/MS).
(§4) The cleared volume was determined by dividing the compound amount in basolateral compartment by the compound concentration in apical compartment. The slope of the cumulative clearance versus time was calculated by linear regression analysis and denoted as permeability coefficient (PEall) × surface area of the membrane insert (S, 0.33 cm^2). The PEblank of blank inserts was included to calculate the PEcell for cell layers themselves using the following equation: 1/PEcellS = 1/PEallS—1/PEblankS.

[2] = Permeability (transport study) across ECV304 monoculture model; conditions: human
Protocol: as §2, §3, §4

[3] = system: bEnd3 cell layers; test: Permeability (transport study) across bEnd3 monoculture model
Protocol: as §2, §3, §4

[4] = system: ECV304 cell layers; test: Permeability (transport study) across ECV304 monoculture model
Protocol: as §2, §3, §4

[5] = system: ECV304 co-cultured with rat glioma C6 cells; test: Permeability to Lucifer yellow in ECV304 co-culture model with C6 cells; format: in vitro ADME, human; conditions: Lucifer yellow 50 μM
Protocol: (§1) For the generation of mono-culture models, ECV304 or bEnd3 cells were seeded on the upper surface of the membrane in Polyester Transwell inserts ([…] pore size, 6.5 mm diameter, 24 well, Costar, Kennebunk, ME, USA) at a density of 5 × 10^4 and 8 × 10^4/cm^2, respectively. For the generation of co-culture models, C6 cells were seeded on the lower surface of the membrane at a density of 5 × 10^4/cm^2 and incubated for 2 h to allow cell attachment before the seeding of ECV304 or bEnd3 cells.

[6] = system: bEnd3 co-cultured with rat glioma C6 cells; test: Permeability to Lucifer yellow in bEnd3 co-culture model with C6 cells; format: in vitro ADME, mouse; conditions: Lucifer yellow 50 μM
Protocol: as §1

[7] = system: ECV304 cell layers; conditions: cited from earlier work

| Papp at 60 min [1] [×10⁻⁶ cm/s] | Papp at 60 min [2] [×10⁻⁶ cm/s] | Compound | other results |
| --- | --- | --- | --- |
| 26.8 ± 0.68 | 24.5 ± 1.61 | C=C[C@H]1C[N@@]2CC[C@H]1C[C@@H]2[C@@H](O)c1ccnc2ccc(OC)cc12 [Quinidine, quinidine] |  |
| 29.7 ± 1.44 | 28.4 ± 1.25 | CC(C)NCC(O)COc1cccc2ccccc12 (stereo not drawn) [Propranolol, propranolol] | permeability ratio of transcellular marker propranolol to paracellular marker Lucifer yellow ([3]; bEnd3 cells, monoculture): 1.2; permeability ratio of transcellular marker propranolol to paracellular marker Lucifer yellow ([4]; ECV304 cells, monoculture): 2.5 |
| 6.24 ± 0.27 | 3.29 ± 0.16 | C[C@H]1O[C@@H](O[C@H]2[C@@H](O)C[C@H](O[C@H]3[C@@H](O)C[C@H](O[C@H]4CC[C@@]5(C)[C@H](CC[C@@H]6[C@@H]5C[C@@H](O)[C@]5(C)[C@@H](C7=CC(=O)OC7)CC[C@]65O)C4)O[C@@H]3C)O[C@@H]2C)C[C@H](O)[C@@H]1O [Digoxin, digoxin] |  |
| 22.3 ± 2.8 | 12.4 ± 0.91 | COC(=O)c1ccccc1-c1c2ccc(=N)cc-2oc2cc(N)ccc12 [R123, Rhodamine 123] |  |
|  |  | Lucifer yellow | increase of permeability to Lucifer yellow, co-culture with C6 cells versus monoculture [5]: 2.2 fold; increase of permeability to Lucifer yellow, co-culture with C6 cells versus monoculture [6]: 2 fold; permeability of Lucifer yellow in ECV304 monolayer, published before [7]: 10.4 ×10⁻⁶ cm/s; permeability to Lucifer yellow ([3]; bEnd3 monoculture model, Lucifer yellow 50 μM, day 5~7 after seeding, mean ± SD, n = 3): 23.68 ± 1.71 × 10^−6 cm/s; permeability to Lucifer yellow ([4]; ECV304 monoculture model, Lucifer yellow 50 μM, day 5~7 after seeding, mean ± SD, n = 3): 11.17 ± 0.87 × 10^−6 cm/s |

From article PMC5653355, “Identification of two immortalized cell lines, ECV304 and bEnd3, for in vitro permeability studies of blood-brain barrier” (PLoS ONE, 2017)
